We go through three molecules from patent US8916571B2, “Methods of treating cancer using inhibitors of 5′-methylthioadenosine phosphorylase” (Albert Einstein College of Medicine of Yeshiva University, priority 2006, dated 2014).

Experiment [1] has as its system mouse lung cancer cells (3LL). The experiment is described as follows: Mouse 3LL lung cancer cell culture study. The class given is cell-based. The procedure: Growth of 3LL and RM1 cells was in Dulbecco's modified Eagle's medium containing serum and antibiotics with 5 mM sodium pyruvate and 0.25 mM non essential amino acid mixture (Gibco). Compound (1) was added as a sterile solution and MTA was absent or present at 20 μM.

A further experiment relates to FaDu cells. As to the kind of experiment: Cell cycle and apoptosis analysis of FaDu cells (propidium staining, FACS). The class given is cell-based, human. To be noted: 6 days. The procedure: FaDu cells were maintained in MEM Eagle's media supplemented with 10% fetal bovine serum, 100 units/ml penicillin, 100 μg/mL streptomycin, 0.1 mM non essential amino acids and 1 mM sodium pyruvate. Cell survival was evaluated using the WST-1 assay (Kicska G A, long Li, Honig H, et al. Proc Natl Acad Sci USA 2001; 98:4593-98). Cells were seeded onto 96 well plates at a density of 10^4 cells per well, with either no additions, 1 μM compound (2), 20 μM MTA or 1 μM compound (2)+20 μM MTA, IC50 was determined following the manufacturer's protocol (Roche Applied Science, Ind.). Cells were grown and measured in triplicate or quadruplicate and the error bars show the mean±SD of the multiple samples.
FaDu cells were subjected to six days in culture using the same conditions described as for Example 4, before staining with propidium […] and FACS cell sorting analysis.

Experiment [2] concerns TRAMP (transgenic adenocarcinoma of mouse prostate) mice. The experiment is described as follows: Treatment of TRAMP mice (tumour mass, metastasis, MRI, histology, polyamines). Particulars: TRAMP mice, alone or in combination with MTA. The class given is in vivo. The procedure:
MRI experiments were performed using a 9.4T 21 cm bore horizontal bore magnet (Magnex Scientific) Varian INOVA MRI system (Fremont, Calif.) equipped with a 28 mm inner diameter quadrature birdcage coil. Mice were anesthetized with isoflurane inhalation anesthesia (1-1.5% in 100% O2 administered via a nose cone) and positioned in the MRI coil. Body temperature was maintained (37-38° C.) using a homeothermic warming system. After acquiring scout images, multi-slice spin-echo imaging with an echo time of 18 ms and a repetition time of 400 ms ms was performed. A 40 mm field of view with a 256×256 matrix size was used. Nine to 15 slices along the transverse, sagittal, and coronal planes were acquired in each multi-slice experiment with a slice thickness of 1 mm and the gap between slices of 0.5 mm. MRI data were processed off-line with MATLAB-based MRI analysis software.
Spent media and perchloric acid extracts of both PC3 cells and tissue samples were subjected to purification via cation exchange chromatography and dansyl-derivatized with minor changes. Disposable 10 ml BIO-RAD columns were centrifuged at 4,000 rpm for 3 minutes. Sodium carbonate used for derivatization was adjusted to pH 9.3 and the concentration of dansyl-chloride was adjusted to 100 mM. Dansyl-polyamines were quantitated by a Waters HPLC/Fluorescence system. A Phenomenex Luna 5μ C18 column was used with a mobile phase of 30% acetonitrile in a 50 mM ammonium acetate buffer at pH 6.8 (eluent A) and 100% acetonitrile (eluent B). Fluorescence detection was monitored by excitation at 338 nm and emission at 500 nm.
Long-Term: Sterile solutions of 100 μM compound (2) (pH ˜6.4). Water bottles were autoclaved prior to filling with sterile inhibitor solutions. Water consumption was monitored every other day, with fresh inhibitor solution being administered to prevent bacterial growth. Mice were control-sacrificed and tissues (genitourinary system, liver, lungs) were collected for histology and polyamine analysis. Mass and dimensions of excised genitourinary system tumours were recorded. Sections of small intestine were also removed for toxicity analysis via H&E staining.

`Nc1ncnc2c(CN3CC(O)[C@@H](CSCc4ccccc4)C3)c[nH]c12` (some centres unmarked) [compound (1)]: the “response of mouse lung cancer cells in culture” value in experiment [1] (in the absence of MTA) is given as “not responding”; in experiment [1] (in the presence of 20 μM MTA), “responding”.

In the experiment with FaDu cells (single agent), `CSC[C@H]1O[C@@H](n2cnc3c(N)ncnc32)[C@H](O)[C@@H]1O` [MTA, methylthioadenosine] yielded an Apoptosis of 6.66%, a G1 of 79.67%, a G2 of 9.91% and an S of 10.42%.

Turning to `CSC[C@H]1N[C@@H](c2c[nH]c3c(N)ncnc23)C(O)C1O` (some centres unmarked) [compound (3)], the prostate cancer progression entry in experiment [2] is on record as “inhibits prostate cancer progression”. In the experiment on FaDu cells (MTA+compound), the Apoptosis amounted to 29.41%, the G1 was 8.26%, the G2 turned out to be 60.49% and the S was 31.25%. In the experiment on FaDu cells (single agent), the Apoptosis was 7.89%, the G1 is reported as 72.06% and the S came to 17.98%.
